Assay results reported in patent US12679825B2, “Crystalline and amorphous forms of a δ-opioid modulator” (Trevena, Inc., priority 2020, dated 2026).
Converted amounts (≈) assume the structure as drawn.

Test: Approximate solubility by solvent addition technique
Format: physicochemical
Conditions: heating to 40° C. between solvent aliquots; for Approximate Solubility: 20° C.; for solubility: 20 °C, thermodynamic from solid
Description: The approximate solubility values of the amorphous free base in the selected solvent systems (see Table 1) was estimated by the solvent addition technique. The following procedure was used for the study: • Approximately 10 mg of material was weighed out into 18×2 mL push-cap vials. • Each solvent/solvent mixture was added to the appropriate vial in 5 volume aliquots (50 μL) until either 1 mL of solvent had been added or until the material dissolved. • In between additions, the sample was stirred at 40° C. • If 1000 μL of solvent was added without dissolution of the material, solubility was calculated to be below this point. • Once addition was complete, all experiments were temperature cycled between 40° C. and 5° C. (1 h hold; 0.1° C./min ramp/cool) for ca. 21 h. • Residual solids were isolated by centrifugation (0.22 μm nylon filter) or by decanting the mother liquor and analyzed by XRPD. • Anti-solvent addition (ASA) at 20° C. was carried out on solutions, followed by further temperature cycling for 21 h. • Any solids were then isolated by centrifugation (0.22 μm nylon filter) or by decanting the mother liquor and analyzed by XRPD. • Experiments which remained solutions had further AS added at 20° C. and were temperature cycled for a further 21 h. • Residual solids were isolated by centrifugation (0.22 μm nylon filter) or by decanting the mother liquor and analyzed by XRPD. • Selected isolated material was dried under vacuum at ambient temperature (ca. 20° C.) for ca. 19-21 h then re-analyzed by XRPD. • Selected dried solids were analyzed by PLM, TG/DSC, DSC, ^1H NMR spectroscopy and HPLC. • Further details can be found in Table 1.
The approximate solubility values of the amorphous free base in a range of different solvent systems was determined at ambient temperature, with heating to 40° C. between solvent aliquots. The solutions and slurries obtained were then used in initial small-scale crystallization trials (see Table 1 for details). […] The material formed gel in water. • Oiling was observed after ASA to experiments carried out in acetone, acetonitrile, DMSO, ethanol, MEK and 2-propanol. • Gum formed after ASA to experiments carried out in anisole, dichloromethane, ethyl acetate, 2-Me THF, toluene, ethanol:water 75:25 v/v and methanol:water 77:23 v/v. • After further temperature cycling, solids were obtained from experiments carried out using tBME, MEK and THF as the initial solvent system. […] (peak at 97° C.) during the first heat. A glass transition with a mid-point half-height of ca. 32° C. was observed during the first cool. […] The residual tBME could not be quantified, due to overlapping signals with the API. Residual heptane was observed, equal to 0.46% w/w, or 0.02 equivalents. • See Table 2 for further details.
Approximate solubility studies were carried out using the amorphous free base in a range of different solvent systems at 20° C., heating to 40° C. between additions of solvent aliquots. […] Poor solubility (≤10 mg/mL) was obtained in water, tBME and heptane, giving limited options for antisolvents. Once the solubility screen was complete, the residual slurries and solutions were temperature cycled, with anti-solvent addition then carried out where experiments remained solutions. […] Poorly crystalline material was isolated from 2-propanol:heptane 20:80 v/v %. Amorphous, or predominantly amorphous material was recovered from 7 experiments, using heptane, dichloromethane:heptane 20:80 v/v %, ethyl acetate:heptane 22:78 v/v %, 2-Me THF:heptane 38:62 v/v %, toluene:heptane 38:62 v/v %, ethanol:water 34:66 v/v % and methanol:water 48:52 v/v %. The remaining experiments yielded gel or oil.

Approximate Solubility (2-Methyl THF): >200 mg/mL
Approximate Solubility (2-Propanol): >200 mg/mL
solubility (2-methyl THF, organic solvent or mixture): > 200 mg/mL
solubility (2-propanol, organic solvent or mixture): > 200 mg/mL
Approximate Solubility (Acetone): >200 mg/mL
Approximate Solubility (Acetonitrile): >200 mg/mL
Approximate Solubility (Anisole): >200 mg/mL
solubility (DMSO, organic solvent or mixture): > 200 mg/mL
Approximate Solubility (DMSO): >200 mg/mL
Approximate Solubility (Dichloromethane): >200 mg/mL
Approximate Solubility (Ethanol): >200 mg/mL
Approximate Solubility (Ethyl acetate): >200 mg/mL
solubility (MEK (methyl ethyl ketone), organic solvent or mixture, MEK): > 200 mg/mL
Approximate Solubility (MEK): >200 mg/mL
Approximate Solubility (Methanol): >200 mg/mL
solubility (THF, organic solvent or mixture): > 200 mg/mL
Approximate Solubility (THF): >200 mg/mL
Approximate Solubility (Toluene): >200 mg/mL
solubility (acetone, organic solvent or mixture): > 200 mg/mL
solubility (acetonitrile, organic solvent or mixture): > 200 mg/mL
solubility (anisole, organic solvent or mixture): > 200 mg/mL
solubility (dichloromethane, organic solvent or mixture): > 200 mg/mL
solubility (ethanol, organic solvent or mixture): > 200 mg/mL
solubility (ethanol:water 75:25 v/v, aqueous with cosolvent or surfactant or cyclodextrin, Ethanol:Water 75:25 v/v): > 200 mg/mL
solubility (ethyl acetate, organic solvent or mixture): > 200 mg/mL
solubility (heptane, organic solvent or mixture): ≤ 10 mg/mL
solubility (methanol, organic solvent or mixture): > 200 mg/mL
solubility (methanol:water 77:23 v/v, aqueous with cosolvent or surfactant or cyclodextrin, Methanol:Water 77:23 v/v): 50 mg/mL (≈ 99.3 mM)
solubility (tBME, organic solvent or mixture): ≤ 10 mg/mL
solubility (toluene, organic solvent or mixture): > 200 mg/mL
solubility (water): ≤ 10 mg/mL
Structure (SMILES): COCCOc1cccc([C@@H]2CCN(CCn3cccc3)[C@H](C)[C@H]2COc2ccc3c(c2)C(=O)NC3)c1 [free base, (−)-6-{[(trans,trans)-4-[3-(2-methoxyethoxy)phenyl]-2-methyl-1-[2-(1H-pyrrol-1-yl)ethyl]piperidin-3-yl]methoxy}-2,3-dihydro-1H-isoindol-1-one]
